Tested on: SEM cells
Assay: cell viability relative to DMSO control; higher = less cytotoxic
Conditions: 48 h
Summary of the method: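 Leukemia cells (NOMO1 or SEM, 500 cells/well; P12-Ichikawa, 1000 cells/well) were seeded in 5 μl in 1536-well plates after at least four passages of adaptation to each medium. They received library compounds in DMSO by pin dosing, 11 threefold points from 47 μM to 0.79 nM. Luminescence with CellTiter-Glo One was read after 48 h at 37°C. Viability is stated per plate relative to DMSO wells, with cell-free wells as background.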

[1] = HPLM + 10% dialyzed FBS, 0.000781 µM
[2] = HPLM + 10% dialyzed FBS, 0.00234 µM
[3] = HPLM + 10% dialyzed FBS, 0.00702 µM
[4] = HPLM + 10% dialyzed FBS, 0.0211 µM
[5] = HPLM + 10% dialyzed FBS, 0.0632 µM
[6] = HPLM + 10% dialyzed FBS, 0.19 µM
[7] = HPLM + 10% dialyzed FBS, 0.569 µM
[8] = HPLM + 10% dialyzed FBS, 1.71 µM
[9] = HPLM + 10% dialyzed FBS, 5.12 µM
[10] = HPLM + 10% dialyzed FBS, 15.4 µM
[11] = HPLM + 10% dialyzed FBS, 46.1 µM
[12] = RPMI 5 mM glucose + 10% FBS, 0.000781 µM
[13] = RPMI 5 mM glucose + 10% FBS, 0.00234 µM
[14] = RPMI 5 mM glucose + 10% FBS, 0.00702 µM
[15] = RPMI 5 mM glucose + 10% FBS, 0.0211 µM
[16] = RPMI 5 mM glucose + 10% FBS, 0.0632 µM
[17] = RPMI 5 mM glucose + 10% FBS, 0.19 µM
[18] = RPMI 5 mM glucose + 10% FBS, 0.569 µM
[19] = RPMI 5 mM glucose + 10% FBS, 1.71 µM
[20] = RPMI 5 mM glucose + 10% FBS, 5.12 µM
[21] = RPMI 5 mM glucose + 10% FBS, 15.4 µM
[22] = RPMI 5 mM glucose + 10% FBS, 46.1 µM
[23] = RPMI 5 mM glucose + 10% dialyzed FBS, 0.000781 µM
[24] = RPMI 5 mM glucose + 10% dialyzed FBS, 0.00234 µM
[25] = RPMI 5 mM glucose + 10% dialyzed FBS, 0.00702 µM
[26] = RPMI 5 mM glucose + 10% dialyzed FBS, 0.0211 µM
[27] = RPMI 5 mM glucose + 10% dialyzed FBS, 0.0632 µM
[28] = RPMI 5 mM glucose + 10% dialyzed FBS, 0.19 µM
[29] = RPMI 5 mM glucose + 10% dialyzed FBS, 0.569 µM
[30] = RPMI 5 mM glucose + 10% dialyzed FBS, 1.71 µM
[31] = RPMI 5 mM glucose + 10% dialyzed FBS, 5.12 µM
[32] = RPMI 5 mM glucose + 10% dialyzed FBS, 15.4 µM
[33] = RPMI 5 mM glucose + 10% dialyzed FBS, 46.1 µM

| SMILES | cell viability [1] | cell viability [2] | cell viability [3] | cell viability [4] | cell viability [5] | cell viability [6] | cell viability [7] | cell viability [8] | cell viability [9] | cell viability [10] | cell viability [11] | cell viability [12] | cell viability [13] | cell viability [14] | cell viability [15] | cell viability [16] | cell viability [17] | cell viability [18] | cell viability [19] | cell viability [20] | cell viability [21] | cell viability [22] | cell viability [23] | cell viability [24] | cell viability [25] | cell viability [26] | cell viability [27] | cell viability [28] | cell viability [29] | cell viability [30] | cell viability [31] | cell viability [32] | cell viability [33] |
| --- | --- | --- | --- | --- | --- | --- | --- | --- | --- | --- | --- | --- | --- | --- | --- | --- | --- | --- | --- | --- | --- | --- | --- | --- | --- | --- | --- | --- | --- | --- | --- | --- | --- |
| CN1C(=O)C(=C\C2=C1N=C(NC3=CC=CC(=C3)C(O)=O)N=C2)/C4=C(Cl)C=CC=C4Cl | 106% | 114% | 108% | 112% | 110% | 116% | 107% | 110% | 104% | 67.4% | 31.9% | 103% | 124% | 132% | 114% | 125% | 123% | 90.9% | 101% | 84.2% | 65.6% | 25% | 106% | 118% | 136% | 130% | 121% | 115% | 100% | 116% | 97% | 73.1% | 37.8% |
| ClC1=CC=C2N/C3=N/C(=O)CN3CC2=C1Cl | 123% | 124% | 120% | 134% | 126% | 119% | 132% | 138% | 125% | 115% | 105% |  |  |  |  |  |  |  |  |  |  |  |  |  |  |  |  |  |  |  |  |  |  |
| COc1cc(CCc2cc(NC(=O)c3ccc(N4C[C@@H](C)N[C@@H](C)C4)cc3)n[nH]2)cc(OC)c1 | 109% | 125% | 131% | 128% | 127% | 52% | 85.8% | 77% | 64.4% | 29.8% | 18% | 111% | 113% | 117% | 123% | 96.1% | 47.8% | 80.7% | 66.2% | 63.5% | 29.7% | 19.5% | 122% | 122% | 124% | 125% | 101% | 52.1% | 96.2% | 87.7% | 64.1% | 31.6% | 18.5% |

From the supplement of paper PMC11451515
